# The source made the active and inactive calls. The rule behind the calls is not given here. Numbered stars: 1 amine (or outer) side, 2 acyl side, 3 side chain; on linkers, the order of the positions; unused ones are H or OH. Bridge positions count the residues as written; N and C are the ends. Square brackets hold non-standard residues; d marks the D form. Peptide text beside a SMILES is read from it. I, II: the chains in the order shown. Actinocin(1to9) = Cc1c2oc3c(C)ccc(C(=O)[*:2])c3nc-2c(C(=O)[*:1])c(N)c1=O; NMeV = CN[C@H](C(=O)O)C(C)C; Sar = CNCC(=O)O
# Key:
# Calf thymus DNA = assay: Binding affinity to calf thymus DNA by UV spectral analysis; assay type: nucleic-acid assay; settings: Bos taurus
# Vero = assay: Cytotoxicity against african green monkey Vero cells after 20 hrs by MTS assay; assay type: cell-based; settings: Chlorocebus sabaeus
# MOLT-3 = assay: Cytotoxicity against human MOLT3 cells after 20 hrs by MTS assay; assay type: functional, cell-based; settings: MOLT-3, 20 h
# HeLa = assay: Cytotoxicity against human HeLa cells after 20 hrs by MTS assay; assay type: functional, cell-based
# U-937 = assay: Cytotoxicity against human U937 cells after 20 hrs by MTS assay; assay type: functional, cell-based; settings: U-937, 20 h
# THP-1 = assay: Cytotoxicity against human THP1 cells after 20 hrs by MTS assay; assay type: functional, cell-based; settings: THP-1, 20 h
# A549 [1] = assay: Cytotoxicity against human A549 cells by SRB assay; assay type: functional, cell-based
# Nucleic Acid = assay: Binding affinity to Escherichia coli phiX174 RF1 DNA assessed as DNA unwinding in presence of topoisomerase 1 after 30 mins by electrophoresis; assay type: nucleic-acid assay
# A549 [2] = assay: Cytotoxicity against human A549 cells assessed as decrease of viable cells at 0.5 ug/ml after 8 hrs relative to control; assay type: functional
Kb (Calf thymus DNA),Activity (Nucleic Acid),Structure (SMILES),IC50 (Vero),IC50 (MOLT-3),IC50 (HeLa),IC50 (U-937),IC50 (THP-1),IC50 (A549 [1]),Activity (A549 [2])
6.8 ×10³ /M,–,CN1O[C@H](CO)C[C@@H]1c1ccc2ccc3cccc4ccc1c2c34,–,–,–,–,–,–,–
–,–,CN1O[C@H]2C(=O)NC(=O)[C@H]2[C@@H]1c1ccc2ccc3cccc4ccc1c2c34 (racemic),150 µM,95 µM,135 µM,130 µM,102 µM,83 µM,–
–,–,CN1O[C@@H]2C(=O)NC(=O)[C@@H]2[C@@H]1c1ccc2ccc3cccc4ccc1c2c34 (racemic),> 500 µM,415 µM,284 µM,> 500 µM,399 µM,328 µM,–
–,–,NC[C@@H]1C[C@H](c2cc3ccccc3c3ccccc23)N(Cc2ccccc2)O1 (racemic),132 µM,43 µM,50 µM,154 µM,55 µM,32 µM,–
9.6 ×10⁴ /M,Active,CN1O[C@H](CN)C[C@@H]1c1ccc2ccc3cccc4ccc1c2c34 (racemic),102 µM,12 µM,15 µM,88 µM,19 µM,9 µM,–
–,–,NC[C@H]1C[C@H](c2cc3ccccc3c3ccccc23)N(Cc2ccccc2)O1 (racemic),140 µM,50 µM,45 µM,112 µM,61 µM,35 µM,–
–,–,CN1O[C@@H](CN)C[C@@H]1c1ccc2ccc3cccc4ccc1c2c34 (racemic),110 µM,17 µM,15 µM,80 µM,18 µM,11 µM,–
–,–,"Cc1c2oc3c(C)ccc(C(=O)N[C@@H]4C(=O)N[C@H](C(C)C)C(=O)N5CCC[C@H]5C(=O)N(C)CC(=O)N(C)[C@@H](C(C)C)C(=O)O[C@@H]4C)c3nc-2c(C(=O)N[C@@H]2C(=O)N[C@H](C(C)C)C(=O)N3CCC[C@H]3C(=O)N(C)CC(=O)N(C)[C@@H](C(C)C)C(=O)O[C@@H]2C)c(N)c1=O [DACTINOMYCIN] (I: T[dV]P[Sar][NMeV] / II: T[dV]P[Sar][NMeV]; ester I:1-I:C, II:1-II:C; linker I:N-II:N via Actinocin(1to9))",–,≤ 1 µM,–,–,–,–,40%

# From ChEMBL document CHEMBL1649371, “Isoxazolidinyl polycyclic aromatic hydrocarbons as DNA-intercalating antitumor agents” (Eur J Med Chem, 2011)
